Measurements from patent US8030493B2, “Monovalent and divalent salts of N-(5-hydroxynicotinoil) -L-glutamic acid exhibiting psychotropic (antidepressant and anxiolytic), neuroprotective, geroprotective and cerebroprotective action” (Obschestvo S Ogranichennoy Otvetstvennostyu “Natsionalnaya …, priority 2006, dated 2011).

Key:
[1] = test system: rats with hemorrhagic stroke; test: Hemorrhagic stroke: reproduction of passive avoidance response; type: in vivo; conditions: 20 mg/kg; for Increase of the share of rats with HS that retained the memory trace: PAR reproduction on Day 14, versus 8% of untreated rats with stroke
Source text: White nondescript male rats with body weight 200-250 g, which lived in vivarium and had feed (standard palletized feed) and water ad libitum, with natural alternation of day and night, were used in the experiments. Hemorrhagic stroke (local cerebral hemorrhage) was simulated according to method by A. N. Makarenko et al. (Method of local hemorrhage simulation I various structures of the brain in experimental animals. Journal Visshei Nervnoy Deyatelnosti—Journal of Higher Nervous Activities, 2002, v. 52, No 6, p. 765-768). In nembutal-anesthetized rats (40 mg/kg, i.m.) destruction of the brain tissue in capsule interna area was made with the use of special device (mandarin-knife) followed by application of blood (0.02-0.03 ml) taken from under the rat's tongue to the damaged area (within 2-3 minutes). False-operated animals underwent scalping and craniotomy. The animals were divided into 5 groups: intact rats, false-operated rats, animals with hemorrhagic stroke received nooglutyl at 20 mg/kg, and animals with hemorrhagic stroke received Compound I at 20 mg/kg. Effects were recorded within 24 hours and 14 days after the surgery. Learning ability and memory of the rats was examined in the model of passive avoidance response (PAR, Passive Avoidance supplied by Lafayette Instrument Co., USA). To determine neurological deficit in the animals Stroke-index McGrow scale modified by I. V. Gannushkina (Functional architectonics of the brain, Moscow, Medicina, 1977, 224 p.) was used. The severity of the condition was determined by the sum of the points. The number of rats with mild symptoms up to 2.5 points of Stroke-index scale (apathy, weakness of the extremities, unilateral semiptosis, tremor, circus movements) and severe manifestations of neurological disorders (3 to 10 points)—paresis of the extremities, palsy of low extremities, lateral position. The animals received single dose of nooglutyl and Compound I at the same dose 20 mg/kg intraperitoneally within 3-3.5 hours after the surgery. Controlled animals were treated with saline. At onset of the experiment each group comprised 15-20 animals. Mortality of the rats was recorded throughout the observation period (14 days). Statistical analysis was made using parametrical and non-parametrical methods and Biostat software. Nimodipin administered at 01.mg/kg according to above scheme was considered as a standard.

[2] = test system: mice exposed to hypoxia in hermovolume; test: Hypoxia with hypercapnia in hermovolume; type: in vivo
Protocol: (§1) White nondescript male mice with body weight 22-28 g were used in the experiments. Each dose level was studied in 10 animals. Control animals received equivalent volume of distilled water. Nooglutyl was used as reference agent. Study compounds were administered intraperitoneally 40 minutes before the experiment.
(§2) Acute hypobaric hypoxia was simulated in flow-exhaust chamber. Pressure was measured with altimeter, and elevation speed with variometer. The animals were “elevated” at the speed 20 m/s to the stage at 11000 m. The exposure lasted 10 minutes. Then the animals were mover down to the baseline level for 5 minutes. Hypoxia with hypercapnia in hermovolume was created by placement of the animal into 200 ml hermetically sealed glass vessels. Life period of the animals under hypoxic conditions was recorded. Each group comprised 10 animals.

[3] = test system: rats with massive cortical ischemia; test: Model of massive cortical ischemia (occlusion of middle cerebral artery): ischemic damage of cerebral cortex; type: in vivo; conditions: for Intensity of ischemic damage of cerebral cortex (slice score, points), slice 1 / Intensity of ischemic damage of cerebral cortex (slice score, points), slice 2 / Intensity of ischemic damage of cerebral cortex (slice score, points), slice 3 / Intensity of ischemic damage of cerebral cortex (slice score, points), slice 4 / Intensity of ischemic damage of cerebral cortex (slice score, points), slice 5: 72 hours after OMCA
Protocol: White nondescript male rats with body weight 350-450 g anesthetized with chloral hydrate (400 mg/kg, intraperitoneally) were used in the experiments. After ligation of left carotid occlusion of middle cerebral artery (OMCA) was made under the microscope (magnification 14.0×3.3) proximal to bifurcation to frontal and parietal branches (S. T. Chen et al., Stroke, 1986, v. 17, No 4, p. 738-743).
After the surgery the animals were randomized into 3 groups. Experimental animals received Compound I or nooglutyl intraperitoneously 30 minutes, 2, 24, and 48 hours after the surgery. Control animals at the same time points received saline (0.9% sodium chloride solution). 72 hours after OMCA the animals were decapitated. Material frozen at −20° C. was used for preparation of 5 frontal slices 2.5 mm thick, which were painted with 2,3,5-triphenyltetrazolium solution (TPTZ). Auc1 morphometric program was used to perform planimetria, determination of affected zone extent and percentage of affected zone extent in relation to volume of ipsilateral hemisphere. The surgery results in creation of vast ischemic damage of the brain cortex, which is localized within frontal-parietal and dorsal-lateral zones. To compare intensity of the changes in different slices arbitrary scale was used, with 75%, 60%, 45%, 20%, 5%, and 0% affection of hemisphere assessed as 2.5 points, 2 points, 1.5 points, 1 point, 0.5 points, and 0 points, respectively.

[4] = test system: mice exposed to hypobaric hypoxia; test: Acute hypobaric hypoxia in flow-exhaust chamber; type: in vivo
Protocol: as §1, §2

[5] = in vivo; conditions: male, white nondescript (outbred), mouse, ip
Protocol: The study of acute daily toxicity of Compound I was carried out on white nondescript male mice with body weight 25-28 g, which lived in habitual conditions in vivarium and received feed and water ad libitum. Single dose of Compound I was administered intraperitoneally. The animals were under observation for 2 days after the dosing. The dose levels of Compound I used in the toxicity study were as follows: 800 mg/kg, 1000 mg/kg, 1200 mg/kg, 1500 mg/kg, 1600 mg/kg. Compound I was dissolved in distilled water and administered in 0, 1 ml per 10 g of the body weight of the animal when the doses 800 mg/kg and 1000 mg/kg, and in 0.2 ml per 10 g of the body weight when the doses 1200 mg/kg, 1500 mg/kg, 1600 mg/kg were used. Control animals received distilled water in the volume 0.2 ml per 10 g of the body weight.
Each dose group comprised 10 animals.

[6] = PAR reproduction within 24 hours
[7] = PAR reproduction within 14 days
[8] = 30 mg/kg intraperitoneally 40 minutes before the experiment
[9] = 60 mg/kg intraperitoneally 40 minutes before the experiment
[10] = 120 mg/kg intraperitoneally 40 minutes before the experiment
[11] = 40 mg/kg intraperitoneally 30 minutes, 2, 24, 48 hours after surgery
[12] = 50 mg/kg intraperitoneally 30 minutes, 2, 24, 48 hours after surgery

Row | SMILES | Increase of the share of rats with HS that retained the memory trace [1] [fold] | Latent period of entry to dark chamber (c) [1, 6] [c] | Number of animals, which did not enter dark chamber (%) [1, 6] [%] | Latent period of entry to dark chamber (c) [1, 7] [c] | Number of animals, which did not enter dark chamber (%) [1, 7] | Life interval of mice (minutes) exposed to hypoxia in hermovolume [2, 8] [min] | Life interval of mice (minutes) exposed to hypoxia in hermovolume [2, 9] [min] | Life interval of mice (minutes) exposed to hypoxia in hermovolume [2, 10] [min] | Life interval of mice (minutes) exposed to hypobaric hypoxia [4, 8] [min] | Life interval of mice (minutes) exposed to hypobaric hypoxia [4, 9] [min] | LD50 at 2 days [5] [mg/kg] | other results
1 | O=C([O-])CC[C@H](NC(=O)c1cncc(O)c1)C(=O)[O-].[Ca+2] [Compound I, Calcium N-(5-hydroxynicotinoyl)-L-glutamate] | 6.5 | 128.1 ± 17.6 | 63 | 98.9 ± 21.3 | 52$$ % | 16.2 ± 0.31 | 17.8 ± 0.41 | 18.1 ± 0.48 | 6.51 ± 0.82 | 9.17 ± 0.91 | 1150 | Total affected area (percentage of volume of ipsilateral hemisphere) ([3]; 40 mg/kg after ischemia-inducing exposure): 10.54±1.84%; Intensity of ischemic damage of cerebral cortex (slice score, points), slice 1 [3, 11]: 0.08 ± 0.01 points; Intensity of ischemic damage of cerebral cortex (slice score, points), slice 2 [3, 11]: 0.92 ± 0.12 points; Intensity of ischemic damage of cerebral cortex (slice score, points), slice 3 [3, 11]: 0.7 ± 0.19 points; Intensity of ischemic damage of cerebral cortex (slice score, points), slice 4 [3, 11]: 0.58 ± 0.14 points; Intensity of ischemic damage of cerebral cortex (slice score, points), slice 5 [3, 11]: 0.2 ± 0.15 points; Decrease of total affected extent versus control ([3]; 40 mg/kg, p<0.05): 47.3%
2 | O=C(O)CC[C@H](NC(=O)c1cncc(O)c1)C(=O)O [Nooglutyl, N-(5-hydroxynicotinoyl)-L-glutamic acid, reference compound] | 5 | 130.4 ± 20.1 | 64 | 92.2 ± 18.2 | 40$ % | 13.9 ± 0.42 | 15.2 ± 0.39 | 16.4 ± 0.53 | 4.1 ± 0.77 | 7.68 ± 0.54 | 1200 | Total affected area (percentage of volume of ipsilateral hemisphere) ([3]; 50 mg/kg after ischemia-inducing exposure): 14.3±2.14%; Intensity of ischemic damage of cerebral cortex (slice score, points), slice 1 [3, 12]: 0.28 ± 0.06 points; Intensity of ischemic damage of cerebral cortex (slice score, points), slice 2 [3, 12]: 1.12 ± 0.17 points; Intensity of ischemic damage of cerebral cortex (slice score, points), slice 3 [3, 12]: 1.01 ± 0.11 points; Intensity of ischemic damage of cerebral cortex (slice score, points), slice 4 [3, 12]: 0.59 ± 0.19 points; Intensity of ischemic damage of cerebral cortex (slice score, points), slice 5 [3, 12]: 0.18 ± 0.14 points
